# Calls of active or inactive are those of the source. The calls are words filed in the database; no cut-off is given here.
# Columns and labels:
# [1] = Metabolic stability in rat liver microsomes after 0.5 hrs; format: ADME, microsome; conditions: read-out: Stability
# [2] = 1-octanol/PBS distribution co-efficient, log D of the compound at […] at pH 7.4 after 30 mins by HPLC-MS/MS method; format: physicochemical
# [3] = AUC (0 to 24 hrs) in Zucker diabetic fatty rat at 3 mg/kg, po dosed once daily for 14 days and followed by additional administration on day 15; format: ADME, organism-based; set-up: time < 24 hr, dose 3 mg/kg, route oral; conditions: in vivo
# [4] = Aqueous thermodynamic solubility of the compound in pH 6.8 solution up to 4 hrs by HPLC-UV analysis; format: physicochemical; conditions: read-out: Therm_solubility
# [5] = biological target: T1, Peroxisome proliferator-activated receptor gamma (Homo sapiens) (UniProt P37231); assay: Agonist activity at recombinant human GAL4-DBD fused PPARgamma LBD expressed in COS7 cells at 10 uM after 24 hrs by luciferase reporter gene assay relative to rosiglitazone; format: cell-based
# T1 sequence (whole entry): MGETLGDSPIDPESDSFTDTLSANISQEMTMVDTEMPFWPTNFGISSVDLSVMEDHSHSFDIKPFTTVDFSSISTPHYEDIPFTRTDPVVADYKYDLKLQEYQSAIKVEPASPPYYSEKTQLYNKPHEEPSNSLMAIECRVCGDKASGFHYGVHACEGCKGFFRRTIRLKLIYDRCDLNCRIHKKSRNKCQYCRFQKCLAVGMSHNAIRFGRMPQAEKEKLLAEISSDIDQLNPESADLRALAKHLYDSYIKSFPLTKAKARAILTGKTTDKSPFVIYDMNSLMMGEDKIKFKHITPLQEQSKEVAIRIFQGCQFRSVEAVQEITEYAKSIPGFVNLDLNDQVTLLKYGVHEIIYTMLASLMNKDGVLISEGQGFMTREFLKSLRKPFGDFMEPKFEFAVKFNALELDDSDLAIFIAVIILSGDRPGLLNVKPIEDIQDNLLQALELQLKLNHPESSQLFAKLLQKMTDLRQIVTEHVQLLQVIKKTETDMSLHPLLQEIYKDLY
# [6] = biological target: T2, Peroxisome proliferator-activated receptor delta (Homo sapiens) (UniProt Q03181); assay: Agonist activity at PPARdelta (unknown origin) at 10 uM
# T2 sequence (whole entry): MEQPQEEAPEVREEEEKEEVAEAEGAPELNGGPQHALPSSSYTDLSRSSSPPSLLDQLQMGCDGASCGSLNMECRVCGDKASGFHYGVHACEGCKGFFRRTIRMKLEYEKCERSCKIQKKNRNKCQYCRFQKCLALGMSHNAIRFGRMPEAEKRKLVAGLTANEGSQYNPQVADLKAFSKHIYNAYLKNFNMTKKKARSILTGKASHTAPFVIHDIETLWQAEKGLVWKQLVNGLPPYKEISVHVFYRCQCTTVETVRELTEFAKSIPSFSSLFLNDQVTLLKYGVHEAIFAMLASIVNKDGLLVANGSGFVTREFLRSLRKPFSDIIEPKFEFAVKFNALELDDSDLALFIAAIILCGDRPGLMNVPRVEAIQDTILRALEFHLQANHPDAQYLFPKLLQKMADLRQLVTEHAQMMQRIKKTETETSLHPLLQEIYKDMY
# [7] = tested on: Rattus norvegicus; assay: Antidiabetic activity in Zucker diabetic fatty rat assessed as reduction in plasma glucose level at 3 mg/kg, po administered once daily for 14 days measured on day 15 relative to control; format: functional; set-up: scale not given: the % may be the effect or the level left
# [8] = tested on: Rattus norvegicus; assay: Toxicity in Zucker diabetic fatty rat assessed as body weight gain at 3 mg/kg, po administered once daily for 14 days relative to control; format: organism-based; conditions: in vivo, 336 h
# [9] = Cmax in Zucker diabetic fatty rat at 3 mg/kg, po dosed once daily for 14 days and followed by additional administration on day 15; format: ADME, organism-based; set-up: dose 3 mg/kg, route oral; conditions: in vivo
# [10] = biological target: T3, Peroxisome proliferator-activated receptor alpha (Homo sapiens) (UniProt Q07869); assay: Agonist activity at recombinant human GAL4-DBD fused PPARalpha LBD expressed in COS7 cells at 10 uM after 24 hrs by luciferase reporter gene assay relative to 2-(4-tert-Butylphenoxy)-3-[4-[2-[(4-pyridin-2-ylbenzoyl)amino]ethoxy] phenyl]propionic acid; format: cell-based
# T3 sequence (whole entry): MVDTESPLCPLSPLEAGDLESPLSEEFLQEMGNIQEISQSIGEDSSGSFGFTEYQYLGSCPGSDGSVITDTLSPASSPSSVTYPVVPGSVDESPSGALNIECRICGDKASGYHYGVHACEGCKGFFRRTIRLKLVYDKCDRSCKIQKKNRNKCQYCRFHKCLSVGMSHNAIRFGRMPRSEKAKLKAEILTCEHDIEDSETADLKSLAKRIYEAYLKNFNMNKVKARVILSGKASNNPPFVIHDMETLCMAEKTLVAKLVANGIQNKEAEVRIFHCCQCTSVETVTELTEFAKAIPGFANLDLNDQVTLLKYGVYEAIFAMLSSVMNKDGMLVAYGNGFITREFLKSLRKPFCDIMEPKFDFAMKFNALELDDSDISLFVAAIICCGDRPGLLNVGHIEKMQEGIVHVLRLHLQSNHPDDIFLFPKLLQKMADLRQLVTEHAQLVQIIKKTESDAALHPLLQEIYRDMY
# [11] = biological target: T4, Peroxisome proliferator-activated receptor alpha (Homo sapiens, UniProt Q07869); assay: Agonist activity at recombinant human GAL4-DBD fused PPARalpha LBD expressed in COS7 cells after 24 hrs by luciferase reporter gene assay; format: cell-based
# T4 sequence (Q07869 whole entry): T3 sequence (whole entry)
# [12] = Tmax in Zucker diabetic fatty rat at 3 mg/kg, po dosed once daily for 14 days and followed by additional administration on day 15; format: ADME, organism-based; conditions: in vivo
# [13] = biological target: T5, Peroxisome proliferator-activated receptor gamma (Homo sapiens, UniProt P37231); assay: Agonist activity at recombinant human GAL4-DBD fused PPARgamma LBD expressed in COS7 cells after 24 hrs by luciferase reporter gene assay; format: cell-based
# T5 sequence (P37231 whole entry): T1 sequence (whole entry)
# [14] = Apparent permeability of the compound after 4 hrs by PAMPA; format: ADME
# [15] = Metabolic stability in human liver microsomes after 0.5 hrs; format: ADME, microsome; conditions: read-out: Stability
# [16] = Cmax in cynomolgus monkey at 3 mg/kg, po by LC-MS/MS; format: ADME, organism-based, Macaca fascicularis; set-up: dose 3 mg/kg, route oral; conditions: in vivo
# [17] = AUClast in cynomolgus monkey at 3 mg/kg, po by LC-MS/MS; format: ADME, organism-based, Macaca fascicularis; set-up: dose 3 mg/kg, time 0 - last, route oral; conditions: in vivo
# [18] = Half life in cynomolgus monkey at 3 mg/kg, po by LC-MS/MS; format: ADME, organism-based, Macaca fascicularis; conditions: in vivo
# [19] = tested on: Hepatocyte; assay: Cytotoxicity against F344/DuCrlCrlj rat primary hepatocytes assessed as reduction in cell viability at 10 to 100 uM after 24 hrs by LDH release assay; format: cell-based
# [20] = Clearance in cynomolgus monkey at 1 mg/kg, iv by LC-MS/MS; format: ADME, organism-based, Macaca fascicularis; conditions: in vivo
# [21] = tested on: Hepatocyte; assay: Cytotoxicity against F344/DuCrlCrlj rat primary hepatocytes assessed as reduction in mitochondrial enzyme activity at 10 to 100 uM after 24 hrs by WST8 assay; format: cell-based
# [22] = Tmax in cynomolgus monkey at 3 mg/kg, po by LC-MS/MS; format: ADME, organism-based, Macaca fascicularis; conditions: in vivo
# [23] = Oral bioavailability in cynomolgus monkey at 3 mg/kg by LC-MS/MS; format: ADME, organism-based, Macaca fascicularis; conditions: in vivo
# [24] = Volume of distribution at steady state in cynomolgus monkey at 1 mg/kg, iv by LC-MS/MS; format: ADME, organism-based, Macaca fascicularis; conditions: in vivo, read-out: Vdss
# [25] = Metabolic stability in cynomolgus monkey liver microsomes after 0.5 hrs; format: ADME, Macaca fascicularis, microsome; conditions: read-out: Stability
# [26] = tested on: Rattus norvegicus; assay: Antidiabetic activity in Zucker diabetic fatty rat assessed as reduction in plasma glucose level administered orally once daily for 21 days measured on day 22; format: functional, organism-based
# [27] = tested on: Rattus norvegicus; assay: Antidiabetic activity in Zucker diabetic fatty rat assessed as reduction in plasma glucose level at 0.3 mg/kg, po administered once daily for 21 days measured on day 22 relative to control; format: functional; set-up: scale not given: the % may be the effect or the level left
# [28] = Tmax in Zucker diabetic fatty rat at 0.3 mg/kg, po administered once daily for 21 days followed by additional administration on day 22; format: ADME, organism-based; conditions: in vivo
# [29] = AUC (0 to 24 hrs) in Zucker diabetic fatty rat at 0.3 mg/kg, po administered once daily for 21 days followed by additional administration on day 22; format: ADME, organism-based; set-up: dose 0.3 mg/kg, time < 24 hr, route oral; conditions: in vivo
# [30] = Cmax in Zucker diabetic fatty rat at 0.3 mg/kg, po administered once daily for 21 days followed by additional administration on day 22; format: ADME, organism-based; set-up: dose 0.3 mg/kg, route oral; conditions: in vivo
remaining at 0.5 h [1],logD at 0.5 h [2],AUC at 24 h [3],solubility thermodynamic at 4 h [4],Emax [5],Activity [6],Cmax [9],Emax [10],EC50 [11],Tmax [12],EC50 [13],Papp at 4 h [14],remaining at 0.5 h [15],SMILES,Activity [7],Activity [8],further results
81%,1.6,2410 ng·h/mL,70 µg/mL,55%,inactive,410 ng/mL,22%,> 10000 nM,2 h,20 nM,16.5 ×10⁻⁶ cm/s,100%,Cn1c(COc2cccc(C(=O)O)c2)nc2cnc(Oc3ccc4c(c3)CCC4)cc21,1.3%,6.3%,–
87%,1.3,3910 ng·h/mL,10 µg/mL,79%,–,450 ng/mL,5%,> 10000 nM,2 h,–,11.8 ×10⁻⁶ cm/s,90%,Cn1c(COc2cccc(C(=O)O)c2)nc2ccc(Oc3ncc(Cl)cc3F)cc21,70.6%,13.8%,Cmax [16]: 1190 ng/mL; AUC(0-t) [17]: 9940 ng·h/mL; half-life [18]: 8.84 h; Activity [19]: Non-Toxic; clearance [20]: 1.66 mL/min/kg; Activity [21]: Non-Toxic; Tmax [22]: 3.25 h; bioavailability [23]: 31%; Vd [24]: 0.5 L/kg; remaining at 0.5 h [25]: 91%
–,–,–,–,–,inactive,–,13%,–,–,–,–,–,Cc1cnc(Oc2ccc3nc(COc4cccc(C(=O)O)c4)n(C)c3c2)c(C)c1 [listing 1 of 2 here],–,–,Activity [26]: Dose-dependent effect
–,1.9,1400 ng·h/mL,9.9 µg/mL,61%,–,130 ng/mL,6%,> 10000 nM,2.4 h,89 nM,16.1 ×10⁻⁶ cm/s,100%,Cn1c(COc2cccc(C(=O)O)c2)nc2ccc(Oc3ncc(Cl)cc3Cl)cc21,53.3%,10.1%,–
–,–,–,–,–,–,–,–,–,–,–,–,–,Cc1cnc(Oc2ccc3nc(COc4cccc(C(=O)[O-])c4)n(C)c3c2)c(C)c1.Cc1cnc(Oc2ccc3nc(COc4cccc(C(=O)[O-])c4)n(C)c3c2)c(C)c1.[Ca+2],–,–,Activity [27]: 47%; Tmax [28]: 1.8 h; AUC at 24 h [29]: 861 ng·h/mL; Cmax [30]: 79.2 ng/mL
81%,1.8,1250 ng·h/mL,3.9 µg/mL,92%,–,120 ng/mL,7%,> 10000 nM,2.4 h,21 nM,13.7 ×10⁻⁶ cm/s,85%,Cc1cc(Cl)cnc1Oc1ccc2nc(COc3cccc(C(=O)O)c3)n(C)c2c1,54.1%,18.5%,–
100%,1.7,2520 ng·h/mL,33 µg/mL,58%,inactive,510 ng/mL,38%,> 10000 nM,2 h,45 nM,12.6 ×10⁻⁶ cm/s,–,Cc1ccc(Oc2ccc3nc(COc4cccc(C(=O)O)c4)n(C)c3n2)cc1,37.6%,6.8%,–
100%,1.2,1010 ng·h/mL,17 µg/mL,66%,–,66 ng/mL,3%,> 10000 nM,4.4 h,71 nM,16.2 ×10⁻⁶ cm/s,100%,Cn1c(COc2cccc(C(=O)O)c2)nc2ccc(Oc3ccc(Cl)cn3)cc21,14.8%,0.2%,–
–,–,3610 ng·h/mL,–,–,–,420 ng/mL,–,–,2 h,–,–,–,Cc1cnc(Oc2ccc3nc(COc4cccc(C(=O)[O-])c4)n(C)c3c2)c(F)c1.[Na+],65.7%,10.8%,–
89%,1.4,3390 ng·h/mL,17 µg/mL,89%,inactive,630 ng/mL,20%,> 10000 nM,2 h,94 nM,9.1 ×10⁻⁶ cm/s,92%,Cn1c(COc2cccc(C(=O)O)c2)nc2ccc(Oc3ccc4c(c3)OCC4)nc21,55.3%,7.1%,Cmax [16]: 460 ng/mL; AUC(0-t) [17]: 4910 ng·h/mL; half-life [18]: 13.3 h; Activity [19]: Non-Toxic; clearance [20]: 2.73 mL/min/kg; Activity [21]: Non-Toxic; Tmax [22]: 1.5 h; bioavailability [23]: 27%; Vd [24]: 1.97 L/kg; remaining at 0.5 h [25]: 88%
92%,1.4,2490 ng·h/mL,–,–,–,180 ng/mL,–,–,3.2 h,–,–,–,Cc1cnc(Oc2ccc3nc(COc4cccc(C(=O)O)c4)n(C)c3c2)c(C)c1 [listing 2 of 2 here],57%,–,Cmax [16]: 2250 ng/mL; AUC(0-t) [17]: 23500 ng·h/mL; half-life [18]: 13.5 h; clearance [20]: 2.06 mL/min/kg; Tmax [22]: 5 h; bioavailability [23]: 89%; Vd [24]: 0.36 L/kg; remaining at 0.5 h [25]: 80%
71%,2.5,4080 ng·h/mL,4.3 µg/mL,79%,inactive,600 ng/mL,23%,> 10000 nM,2 h,25 nM,31.5 ×10⁻⁶ cm/s,76%,Cn1c(COc2cccc(C(=O)O)c2)nc2ccc(Oc3ccc4c(c3)CCC4)nc21,70.4%,14%,–

# Source: ChEMBL document CHEMBL4152362, “Discovery of DS-6930, a potent selective PPARγ modulator. Part II: Lead optimization” (Bioorg Med Chem, 2018)
